Data reported in US10738028B2, “Spiro three-membered ring, spiro five-membered ring peptide deformylase inhibitor and use thereof in antibacteria and anti-tumor” (priority 2016, dated 2020).

How the values were obtained:
Type in all cases: cell-based
[1] = system: Escherichia coli (including ESBLs, non-ESBLs); test: MIC, two-fold agar dilution (CLSI), clinical isolates
Outline: (§1)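 Samples are serially diluted two-fold in agar following CLSI guidance. Plates are then inoculated with the tested strains. The lowest inhibiting concentration is recorded as MIC.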

[2] = system: Enterococcus faecalis (EFA); test: as above
Outline: as §1

[3] = system: methicillin-sensitive Staphylococcus aureus (MSSA); test: as above
Outline: as §1

[4] = system: methicillin-resistant Staphylococcus epidermidis (MRSE); test: as above
Outline: as §1

[5] = system: Streptococcus pneoumoniae (SPN); test: as above
Outline: as §1

[6] = system: methicillin-resistant Staphylococcus aureus (MRSA); test: as above
Outline: as §1

[7] = system: methicillin-sensitive Staphylococcus epidermidis (MSSE); test: as above
Outline: as §1

[8] = system: Enterococcus faecium (EFM); test: as above
Outline: as §1

[9] = system: Moraxella catarrhalis (BCA); test: as above
Outline: as §1

[10] = system: HCT-116 colorectal cancer cell line; test: CCK-8 proliferation inhibition; details: Homo sapiens, HCT-116, 72 h, concentration of 30 μM; 72 hours; CCK-8; read-out: HCT116 inhibition rate/%
Outline: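 2000 cells/well, McCoy's 5A + 10% newborn bovine serum; overnight attach, 37° C./5% CO2. Cpd from DMSO stock diluted in medium, 72 h. Readout: CCK-8 (1:10). Ctrl 1‰ DMSO.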

CCCC[C@H](CC(=O)NO)C(=O)N1CC2(CC2)C[C@H]1C(=O)Nc1ccc(N2CCOCC2)cc1 [Example 43, (S)-5-((R)-2-(2-(hydroxyamino)-2-oxoethyl)hexanoyl)-N-(4-morpholinophenyl)-5-spiro[2.4]heptane-6-carboxamide]
1 µg/mL: Anti-bacterial activity (MIC), strain ECO+ 15-1 ([1]; clinical isolate ECO+ 15-1) | Anti-bacterial activity (MIC), strain ECO+ 15-4 ([1]; clinical isolate ECO+ 15-4) | Anti-bacterial activity (MIC), strain MSSA 15-5 ([3]; clinical isolate MSSA 15-5) | Anti-bacterial activity (MIC), strain MRSE 15-1 ([4]; clinical isolate MRSE 15-1) | Anti-bacterial activity (MIC), strain MRSE 15-7 ([4]; clinical isolate MRSE 15-7) | Anti-bacterial activity (MIC), strain SPN 16-2 ([5]; clinical isolate SPN 16-2) | Anti-bacterial activity (MIC), strain SPN 16-4 ([5]; clinical isolate SPN 16-4) | Anti-bacterial activity (MIC), strain MRSA 15-1 ([6]; clinical isolate MRSA 15-1) | Anti-bacterial activity (MIC), strain MRSA 15-3 ([6]; clinical isolate MRSA 15-3) | Anti-bacterial activity (MIC), strain MSSE 15-3 ([7]; clinical isolate MSSE 15-3) | Anti-bacterial activity (MIC), strain MSSE 15-4 ([7]; clinical isolate MSSE 15-4) | Anti-bacterial activity (MIC), strain MSSE 15-5 ([7]; clinical isolate MSSE 15-5) | Anti-bacterial activity (MIC), strain MSSE 15-6 ([7]; clinical isolate MSSE 15-6) | Anti-bacterial activity (MIC), strain EFM 15-5 ([8]; clinical isolate EFM 15-5) | Anti-bacterial activity (MIC), strain BCA 14-5 ([9]; clinical isolate BCA 14-5) | Anti-bacterial activity (MIC), strain BCA 14-6 ([9]; clinical isolate BCA 14-6)
2 µg/mL: Anti-bacterial activity (MIC), strain EFM 15-6 ([8]; clinical isolate EFM 15-6) | Anti-bacterial activity (MIC), strain BCA 14-1 ([9]; clinical isolate BCA 14-1) | Anti-bacterial activity (MIC), strain BCA 14-4 ([9]; clinical isolate BCA 14-4) | Anti-bacterial activity (MIC), strain BCA 14-7 ([9]; clinical isolate BCA 14-7) | Anti-bacterial activity (MIC), strain BCA 14-8 ([9]; clinical isolate BCA 14-8) | Anti-bacterial activity (MIC), strain BCA 14-10 ([9]; clinical isolate BCA 14-10)
> 32 µg/mL: Anti-bacterial activity (MIC), strain ECO+ 15-2 ([1]; clinical isolate ECO+ 15-2) | Anti-bacterial activity (MIC), strain ECO+ 15-3 ([1]; clinical isolate ECO+ 15-3) | Anti-bacterial activity (MIC), strain ECO− 15-1 ([1]; clinical isolate ECO− 15-1) | Anti-bacterial activity (MIC), strain ECO− 15-2 ([1]; clinical isolate ECO− 15-2) | Anti-bacterial activity (MIC), strain ECO− 15-3 ([1]; clinical isolate ECO− 15-3) | Anti-bacterial activity (MIC), strain ECO− 15-4 ([1]; clinical isolate ECO− 15-4) | Anti-bacterial activity (MIC), strain EFA 15-1 ([2]; clinical isolate EFA 15-1) | Anti-bacterial activity (MIC), strain EFA 15-2 ([2]; clinical isolate EFA 15-2) | Anti-bacterial activity (MIC), strain EFA 15-3 ([2]; clinical isolate EFA 15-3) | Anti-bacterial activity (MIC), strain EFA 15-4 ([2]; clinical isolate EFA 15-4) | Anti-bacterial activity (MIC), strain EFA 15-5 ([2]; clinical isolate EFA 15-5) | Anti-bacterial activity (MIC), strain EFA 15-6 ([2]; clinical isolate EFA 15-6) | Anti-bacterial activity (MIC), strain EFA 15-9 ([2]; clinical isolate EFA 15-9) | Anti-bacterial activity (MIC), strain EFM 15-1 ([8]; clinical isolate EFM 15-1) | Anti-bacterial activity (MIC), strain EFM 15-2 ([8]; clinical isolate EFM 15-2) | Anti-bacterial activity (MIC), strain EFM 15-3 ([8]; clinical isolate EFM 15-3) | Anti-bacterial activity (MIC), strain EFM 15-4 ([8]; clinical isolate EFM 15-4)
6%: inhibition at 30 µM [10]
4 µg/mL: Anti-bacterial activity (MIC), strain MSSA 15-3 ([3]; clinical isolate MSSA 15-3) | Anti-bacterial activity (MIC), strain MSSA 15-4 ([3]; clinical isolate MSSA 15-4) | Anti-bacterial activity (MIC), strain MSSA 15-6 ([3]; clinical isolate MSSA 15-6) | Anti-bacterial activity (MIC), strain MRSE 15-2 ([4]; clinical isolate MRSE 15-2) | Anti-bacterial activity (MIC), strain MRSE 15-3 ([4]; clinical isolate MRSE 15-3) | Anti-bacterial activity (MIC), strain MRSA 15-2 ([6]; clinical isolate MRSA 15-2) | Anti-bacterial activity (MIC), strain MRSA 15-4 ([6]; clinical isolate MRSA 15-4)
